The target of assay [1] is mutant G2019S LRRK2 (Homo sapiens, UniProt Q5S007, G2019S). In words: LRRK2 Assay, Format 2 (Lantha Screen), G2019S mutant. In kind it is biochemical. Set-up: purchased Invitrogen PV4881. Conditions: geometric mean of 2-4 determinations unless otherwise indicated (a: >=5; b: single determination); read-out: LRRK2, Format 2 G2019S IC50. Here is the method: (§1) LRRK2 kinase activity was measured using Lantha Screen technology from Invitrogen. GST-tagged truncated LRRK2 from Invitrogen (Cat # PV4874) was incubated with a fluorescein-labeled peptide substrate based upon ezrin/radixin/moesin (ERM), also known as LRRKtide (Invitrogen cat # PR8976A), in the presence of a dose response of compound. Upon completion, the assay was stopped and detected with a terbium labeled anti-phospho-ERM antibody (Invitrogen, cat # PR8975A). […] Using Echo acoustic dispensing, 60 nL of compound was transferred to a low volume Corning 384-well assay plate. 3 μL of a working solution of substrate (200 nM LRRKtide, […]) prepared in assay buffer (50 mM HEPES, pH 7.5, 3 mM MgCl2, with 2 mM DTT and 0.01% Brij35 added fresh) was added to the 60 nL compound assay plate. The kinase reaction was started with […] of a working solution of LRRK2 enzyme at a concentration of […]. The final reaction concentrations were 100 nM LRRKtide, […], […] LRRK2 enzyme and a compound dose response with a top dose of 3 mM. The reaction was allowed to progress at room temperature for 30 minutes and then stopped with the addition of […] of detection buffer (20 mM Tris pH 7.6, 0.01% NP-40, 6 mM EDTA with 2 nM terbium labeled anti-phospho-ERM). After an incubation of 1 hour at room temperature, the plate was read on an Envision with an excitation wavelength of 340 nm and a reading emission at both 520 nm and 495 nm. The ratio of the 520 nm and 495 nm emission was used to analyze the data. Inhibition of mutant G2019S LRRK2 (Invitrogen cat # PV4881) was measured in the exact same method. All final concentrations of substrate ATP and enzyme were the same.
Sequence of mutant G2019S LRRK2 (Q5S007 970-2527 G2019S limits assumed): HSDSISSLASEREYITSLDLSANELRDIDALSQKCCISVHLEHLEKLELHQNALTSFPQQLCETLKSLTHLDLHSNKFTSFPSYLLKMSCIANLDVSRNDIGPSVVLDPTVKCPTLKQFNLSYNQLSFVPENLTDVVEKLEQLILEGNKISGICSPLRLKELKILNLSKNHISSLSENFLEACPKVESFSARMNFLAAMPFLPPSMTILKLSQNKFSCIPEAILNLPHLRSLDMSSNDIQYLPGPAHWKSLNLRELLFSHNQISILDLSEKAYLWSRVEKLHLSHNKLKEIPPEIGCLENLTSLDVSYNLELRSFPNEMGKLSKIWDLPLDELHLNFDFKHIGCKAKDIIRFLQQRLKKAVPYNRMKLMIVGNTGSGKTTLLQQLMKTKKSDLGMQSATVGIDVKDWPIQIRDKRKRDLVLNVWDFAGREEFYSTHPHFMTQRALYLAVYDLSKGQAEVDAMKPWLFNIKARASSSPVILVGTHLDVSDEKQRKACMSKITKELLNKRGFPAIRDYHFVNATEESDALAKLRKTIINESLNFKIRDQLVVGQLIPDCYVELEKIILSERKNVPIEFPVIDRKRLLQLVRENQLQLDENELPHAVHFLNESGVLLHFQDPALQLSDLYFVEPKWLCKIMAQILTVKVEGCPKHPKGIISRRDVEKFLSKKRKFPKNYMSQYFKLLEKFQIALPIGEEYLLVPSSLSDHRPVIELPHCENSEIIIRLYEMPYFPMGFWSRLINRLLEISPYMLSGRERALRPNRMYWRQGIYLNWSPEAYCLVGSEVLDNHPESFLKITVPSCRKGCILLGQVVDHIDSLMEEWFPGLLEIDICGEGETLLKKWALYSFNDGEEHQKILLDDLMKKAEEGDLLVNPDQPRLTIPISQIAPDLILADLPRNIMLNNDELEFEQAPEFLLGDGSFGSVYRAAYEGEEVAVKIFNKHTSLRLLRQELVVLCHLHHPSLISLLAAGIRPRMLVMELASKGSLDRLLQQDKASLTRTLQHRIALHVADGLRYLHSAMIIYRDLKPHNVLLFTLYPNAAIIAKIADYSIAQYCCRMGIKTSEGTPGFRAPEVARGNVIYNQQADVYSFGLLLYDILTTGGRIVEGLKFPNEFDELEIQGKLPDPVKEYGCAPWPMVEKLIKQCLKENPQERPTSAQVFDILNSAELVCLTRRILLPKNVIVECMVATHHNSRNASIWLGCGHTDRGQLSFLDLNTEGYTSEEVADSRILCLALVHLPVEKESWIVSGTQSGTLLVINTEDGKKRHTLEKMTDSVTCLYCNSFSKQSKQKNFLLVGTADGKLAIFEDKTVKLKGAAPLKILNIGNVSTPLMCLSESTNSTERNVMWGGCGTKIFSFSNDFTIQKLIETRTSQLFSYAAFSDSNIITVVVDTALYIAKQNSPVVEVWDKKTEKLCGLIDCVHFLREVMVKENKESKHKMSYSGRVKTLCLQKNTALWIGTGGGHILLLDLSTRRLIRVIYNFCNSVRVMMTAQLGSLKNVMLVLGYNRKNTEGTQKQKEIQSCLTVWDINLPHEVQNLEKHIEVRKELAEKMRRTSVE

Assay [2] deals with T1, GST-tagged truncated LRRK2 (Homo sapiens, UniProt Q5S007).
T1 construct: GST-tagged truncated LRRK2 from Invitrogen (Cat # PV4874); GST; purchased Invitrogen PV4874
T1 sequence (Q5S007 970-2527 limits assumed): as the sequence (Q5S007 970-2527 G2019S limits assumed) above, with S1050G counted along it
As to the kind of experiment: LRRK2 Assay, Format 2 (Lantha Screen), WT. In kind it is biochemical. Conditions: geometric mean of 2-4 determinations unless otherwise indicated (a: >=5; b: single determination). Here is the method: as §1

Counter-ions that a name gives are not always drawn.

One may read the IC50 as the concentration at which inhibition is half-maximal. For the compound `Cc1cc(Cc2nc3cnc4ccc(C#N)cc4c3n2[C@H]2CCCC[C@H]2O)no1` (racemic) [Example 242, 1-(cis-2-hydroxycyclohexyl)-2-[(5-methyl-1,2-oxazol-3-yl)methyl]-1H-imidazo[4,5-c]quinoline-8-carbonitrile, formate salt], the IC50 stood at 119 nM in assay [1] and 122 nM in assay [2]. In the case of `Cc1cc(Cc2nc3cnc4ccc(C#N)cc4c3n2[C@H]2CCC[C@H]2F)no1` (racemic) [Example 245, 1-(cis-2-fluorocyclopentyl)-2-[(5-methyl-1,2-oxazol-3-yl)methyl]-1H-imidazo[4,5-c]quinoline-8-carbonitrile, formate salt], the IC50 in assay [1] was found to be 18.6 nM; in assay [2], 14.3 nM. `Cc1cn(Cc2nc3cnc4ccc(Cl)cc4c3n2[C@H]2CC[C@@H](F)C2)nn1` (single isomer, unassigned) [Example 93, 8-Chloro-1-(cis-3-fluorocyclopentyl)-2-[(4-methyl-1H-1,2,3-triazol-1-yl)methyl]-1H-imidazo[4,5-c]quinoline]: the IC50 in assay [1] stood at 8.18 nM; in assay [2], 5.62 nM. For the compound `Cc1cnn(Cc2nc3cnc4ccc(C#N)cc4c3n2[C@H]2CC[C@@H](F)C2)c1` (single isomer, unassigned) [Example 94, 1-[cis-3-Fluorocyclopentyl]-2-[(4-methyl-1H-pyrazol-1-yl)methyl]-1H-imidazo[4,5-c]quinoline-8-carbonitrile], the IC50 in assay [1] is 6.01 nM; in assay [2] it was 6.33 nM. Regarding `Cc1cc(Cc2nc3cnc4ccc(C#N)cc4c3n2[C@@H]2CC[C@H](F)C2)no1` (single isomer, unassigned) [Example 97], the figures for the IC50 in assay [1] and in assay [2] were 7.79 nM and 5.14 nM, respectively. On to `C[C@@H]1C[C@H](n2c(C(F)c3ccon3)nc3cnc4ccc(Cl)cc4c32)CCO1` (single isomer, unassigned) [Example 237], for which the IC50 in assay [1] came to 3.92 nM; in assay [2], 4 nM. Turning to `C[C@@H]1C[C@H](n2c(C(F)c3ccon3)nc3cnc4ccc(Cl)cc4c32)CCO1` (single isomer, unassigned) [Example 238], the IC50 in assay [1] turned out to be 3.82 nM; in assay [2], 3.88 nM. In the case of `Cc1cn(Cc2nc3cnc4ccc(Cl)cc4c3n2[C@H]2CC[C@@H](F)C2)nn1` (single isomer, unassigned) [Example C55, 8-chloro-1-(cis-3-fluorocyclopentyl)-2-[(4-methyl-1H-1,2,3-triazol-1-yl)methyl]-1H-imidazo[4,5-c]quinoline], the IC50 in assay [1] turned out to be 22.7 nM; in assay [2], 18.2 nM. As for `Cc1cnn(Cc2nc3cnc4ccc(C#N)cc4c3n2[C@H]2CC[C@@H](F)C2)c1` (single isomer, unassigned) [Example C58, 1-[cis-3-fluorocyclopentyl]-2-[(4-methyl-1H-pyrazol-1-yl)methyl]-1H-imidazo[4,5-c]quinoline-8-carbonitrile], the IC50 in assay [1] is 25.6 nM; in assay [2], 21.9 nM. In the case of `Cc1cc(Cc2nc3cnc4ccc(C#N)cc4c3n2[C@H]2CC[C@@H](F)C2)no1` (single isomer, unassigned) [Example C66], the IC50 in assay [1] came to 42.2 nM; in assay [2], 29.8 nM. The corresponding values for `Cc1cc(Cc2nc3cnc4ccc(C#N)cc4c3n2[C@@H]2CC[C@H](F)C2)on1` (single isomer, unassigned; ent-1) [Example 118, 1-(cis-3-fluorocyclopentyl)-2-[(3-methyl-1,2-oxazol-5-yl)methyl]-1H-imidazo[4,5-c]quinoline-8-carbonitrile, ENT-1] are 6.19 nM and 4.15 nM. `COCc1cn(Cc2nc3cnc4ccc(C#N)cc4c3n2[C@@H]2CC[C@H](F)C2)nn1` (single isomer, unassigned; ent-1) [Example 132, 1-(cis-3-fluorocyclopentyl)-2-{[4-(methoxymethyl)-1H-1,2,3-triazol-1-yl]methyl}-1H-imidazo[4,5-c]quinoline-8-carbonitrile, ENT-1]: the IC50 in assay [1] was 10.8 nM; in assay [2], 7.49 nM. As for `Cc1cc(Cc2nc3cnc4ccc(C#N)cc4c3n2C2CCCC2(F)F)no1` (single isomer, unassigned; ent-1) [Example 143, 1-(2,2-difluorocyclopentyl)-2-[(5-methyl-1,2-oxazol-3-yl)methyl]-1H-imidazo[4,5-c]quinoline-8-carbonitrile, ENT-1], inhibition in assay [2] was half-maximal at 53.9 nM (IC50). Take `Cc1cc(Cc2nc3cnc4ccc(C#N)cc4c3n2[C@@H]2CCC[C@@H]2F)no1` (single isomer, unassigned; ent-1) [Example 146, 1-(cis-2-fluorocyclopentyl)-2-[(5-methyl-1,2-oxazol-3-yl)methyl]-1H-imidazo[4,5-c]quinoline-8-carbonitrile, ENT-1]: the IC50 in assay [1] amounted to 29.9 nM; in assay [2] it was 17.8 nM. Take `Cc1nn2cc(Cc3nc4cnc5ccc(C#N)cc5c4n3[C@@H]3CC[C@H](F)C3)nc2s1` (single isomer, unassigned; ent-1) [Example 168, 1-(cis-3-fluorocyclopentyl)-2-[(2-methylimidazo[2,1-b][1,3,4]thiadiazol-6-yl)methyl]-1H-imidazo[4,5-c]quinoline-8-carbonitrile, ENT-1]: the IC50 in assay [1] came out at 11.5 nM; in assay [2] it was 7.33 nM. Regarding `N#CCc1nc2cnc3ccc(F)cc3c2n1[C@@H]1CC[C@H](F)C1` (single isomer, unassigned; ent-1) [Example 170, {8-fluoro-1-(cis-3-fluorocyclopentyl)-1H-imidazo[4,5-c]quinolin-2-yl}acetonitrile, ENT-1], the IC50 in assay [1] was 106 nM; in assay [2], 64.4 nM. For `CC1(C)CC(n2c(Cc3cc(C(F)(F)F)on3)nc3cnc4ccc(C#N)cc4c32)CCO1` (single isomer, unassigned; ent-1) [Example 176, 1-(2,2-dimethyltetrahydro-2H-pyran-4-yl)-2-{[5-(trifluoromethyl)-1,2-oxazol-3-yl]methyl}-1H-imidazo[4,5-c]quinoline-8-carbonitrile, ENT-1], the figures for the half-maximal inhibitory concentration (IC50) in assay [1] and in assay [2] were 12.7 nM and 13 nM, respectively. On to `Cc1cn(Cc2nc3cnc4ccc(C#N)cc4c3n2C2CCCC2(F)F)nn1` (single isomer, unassigned; ent-1) [Example 196, 1-(2,2-difluorocyclopentyl)-2-[(4-methyl-1H-1,2,3-triazol-1-yl)methyl]-1H-imidazo[4,5-c]quinoline-8-carbonitrile, ENT-1], for which the results for the IC50 in assay [1] and in assay [2] were 15.8 nM and 18.8 nM, respectively. Turning to `N#Cc1ccc2ncc3nc(Cn4cc(C(F)(F)F)cn4)n([C@@H]4CC[C@H](F)C4)c3c2c1` (single isomer, unassigned; ent-1) [Example 201, 1-(cis-3-fluorocyclopentyl)-2-{[4-(trifluoromethyl)-1H-pyrazol-1-yl]methyl}-1H-imidazo[4,5-c]quinoline-8-carbonitrile, ENT-1], the IC50 is 11.3 nM in assay [1] and 7.47 nM in assay [2].

As for `Cc1cc(Cc2nc3cnc4ccc(Cl)cc4c3n2CCF)no1` [Example 181, 8-chloro-1-(2-fluoroethyl)-2-[(5-methyl-1,2-oxazol-3-yl)methyl]-1H-imidazo[4,5-c]quinoline], the midpoint of inhibition in assay [2], the IC50, lay at 99.5 nM. With `FCCn1c(Cc2cnccn2)nc2cnc3ccc(Cl)cc3c21` [Example 182, 8-chloro-1-(2-fluoroethyl)-2-(pyrazin-2-ylmethyl)-1H-imidazo[4,5-c]quinoline], in assay [2], half-maximal inhibition (IC50) was put at 67.4 nM.

In assay [2], `CCC(F)(F)Cn1c(Cc2noc(C)n2)nc2cnc3ccc(Cl)cc3c21` [Example 185, 8-chloro-1-(2,2-difluorobutyl)-2-[(5-methyl-1,2,4-oxadiazol-3-yl)methyl]-1H-imidazo[4,5-c]quinoline] gave an IC50 of 73.2 nM. In assay [2], `CO[C@H]1C[C@H](n2c(Cn3cc(C)nn3)nc3cnc4ccc(Cl)cc4c32)C1` [Example 188, 8-chloro-1-[(1r,3r)-3-methoxycyclobutyl]-2-[(4-methyl-1H-1,2,3-triazol-1-yl)methyl]-1H-imidazo[4,5-c]quinoline] returned an IC50 of 110 nM. Consider `C[C@@H]1C[C@H](n2c(Cc3nc(C4CC4)n(C)n3)nc3cnc4ccc(Cl)cc4c32)CCO1` [Example 191, 8-chloro-2-[(5-cyclopropyl-1-methyl-1H-1,2,4-triazol-3-yl)methyl]-1-[(2R,4R)-2-methyltetrahydro-2H-pyran-4-yl]-1H-imidazo[4,5-c]quinoline], for which the IC50 in assay [2] was determined as 73.5 nM.

For `C[C@@H]1C[C@H](n2c(Cc3cn4c(n3)COCC4)nc3cnc4ccc(Cl)cc4c32)CCO1` [Example 192, 8-chloro-2-(5,6-dihydro-8H-imidazo[2,1-c][1,4]oxazin-2-ylmethyl)-1-[(2R,4R)-2-methyltetrahydro-2H-pyran-4-yl]-1H-imidazo[4,5-c]quinoline], inhibition in assay [2] was half-maximal at 12.6 nM (IC50).

The values are drawn from patent publication US10039753B2, “Imidazo[4,5-c]quinoline and imidazo[4,5-c][1,5]naphthyridine derivatives as LRRK2 inhibitors” (Pfizer Inc., priority 2015, dated 2018).
